# Data from the supplement of paper PMC10307832.
# What was measured:
# Assay in all cases: relative viability (nuclei count vs DMSO), 5 days (fraction); higher = more cells survive
# [1] = compound: CC(C)CCN1c2nc(Nc3cc(F)c(O)c(F)c3)ncc2N(C)C(=O)C1C [BI-D1870] + CC(=O)Nc1cccc(-n2c(=O)n(C3CC3)c(=O)c3c(Nc4ccc(I)cc4F)n(C)c(=O)c(C)c32)c1 [Trametinib] (partner 0.02 µM)
# Outline: (§1)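 Each reported value is a median over duplicate plates. It expresses relative viability: treated-well nuclei count divided by vehicle-well nuclei count. Lung cancer cell lines in 1536-well plates were dosed by pin tool a day after seeding, alone with one drug or with a fixed anchor-drug dose plus five library-drug doses (not always all listed) in √10 steps, and nuclei were counted after 5 days.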
# [2] = compound: CC(C)CCN1c2nc(Nc3cc(F)c(O)c(F)c3)ncc2N(C)C(=O)C1C [BI-D1870] + CS(=O)(=O)CCNCc1ccc(-c2ccc3ncnc(Nc4ccc(OCc5cccc(F)c5)c(Cl)c4)c3c2)o1 [Lapatinib] (partner 2 µM)
# Outline: as §1
# [3] = compound: CC(C)CCN1c2nc(Nc3cc(F)c(O)c(F)c3)ncc2N(C)C(=O)C1C [BI-D1870] + CS(=O)(=O)N1CCN(Cc2cc3nc(-c4cccc5[nH]ncc45)nc(N4CCOCC4)c3s2)CC1 [Pictilisib] (partner 1 µM)
# Outline: as §1
# [4] = compound: O=c1ncccn1[C@@H]1O[C@H](CO)[C@@H](O)[C@H]1O [Zebularine] + CC(=O)Nc1cccc(-n2c(=O)n(C3CC3)c(=O)c3c(Nc4ccc(I)cc4F)n(C)c(=O)c(C)c32)c1 [Trametinib] (partner 0.02 µM)
# Outline: as §1
cell line,measurement,setting,value
UMC-11,relative viability,[1]; first compound 0.04 µM,0.701
same,relative viability,[1]; first compound 0.1265 µM,0.682
same,relative viability,[1]; first compound 0.4 µM,0.688
same,relative viability,[1]; first compound 1.265 µM,0.774
same,relative viability,[1]; first compound 4 µM,0.352
same,relative viability,[2]; first compound 0.04 µM,1.12
same,relative viability,[2]; first compound 0.1265 µM,0.858
same,relative viability,[2]; first compound 0.4 µM,0.97
same,relative viability,[2]; first compound 1.265 µM,1.08
same,relative viability,[2]; first compound 4 µM,0.637
same,relative viability,[3]; first compound 0.04 µM,0.908
same,relative viability,[3]; first compound 0.1265 µM,0.608
same,relative viability,[3]; first compound 0.4 µM,0.759
same,relative viability,[3]; first compound 1.265 µM,0.733
same,relative viability,[3]; first compound 4 µM,0.316
same,relative viability,[4]; first compound 1 µM,0.709
same,relative viability,[4]; first compound 3.162 µM,0.754
same,relative viability,[4]; first compound 10 µM,0.422
same,relative viability,[4]; first compound 31.62 µM,0.644
same,relative viability,[4]; first compound 100 µM,0.376
